In test [1] the test system is bio-ILPR (DNA, i motif) TGTCCCCACACCCCTGTCCCCACACCCCTGT
The test can be described thus: SPR. The note with it: K+ 100 mM; 20 mM MES, pH 5.5, 25 °C.

Another test concerns the target T1, Aβ1-42 (Homo sapiens, UniProt P05067).
T1 construct: Aβ1-42 was purchased from Gill Biochemicals Ltd (Shanghai, China); purchased Gill Biochemicals Ltd (Shanghai, China)
As to the kind of experiment: Congo red binding assay. The class given is biochemical. The note with it: 20 μM compound, 72 h. As to the method: A total of 30 μM Congo red (Aladdin, Shanghai, China) solution (20 mM potassium phosphate, 50 mM NaCl, pH 7.4) was prepared and filtered with a 0.45 μm filter. The Aβ1-42 solutions (30 μM) were co-incubated with B14 (20 μM), A22 (20 μM), or Curcumin (20 μM) at 37 °C protected from light for 72h. The Aβ1-42 solution was mixed with equal volume of Congo red solution, followed by incubation for 30 min. A spectral region from 400 nm to 650 nm was measured by using a UV–vis spectrophotometer (AoE, China).
A total of 30 μM Congo red solution (20 mM potassium phosphate, 50 mM NaCl, pH 7.4) was prepared and filtered with a 0.45 μm filter. The Aβ1-42 solutions (30 μM) were co-incubated with B14 (20 μM) and Curcumin (20 μM) at 37 °C protected from light for 72h. The Aβ1-42 solution was mixed with equal volume of Congo red solution and incubated for 30 min. A spectral region from 400 nm to 650 nm was analyzed by using a UV-vis spectrophotometer (AoE, China).

Test [2] relates to BCL-2 promoter C-rich sequence. As to the kind of experiment: EMSA of BCL-2 i-motif formation. It counts as binding. The conditions noted are these: pH 6.2; 1, 5, 10 eq. How it is done: Figure S5. ESI-MS, UV, CD, and EMSA experiments were performed to examine the effect of B14 on BCL-2 promoter i-motif and G-quadruplex. (A) ESI-MS experiment for oligomer BCL-2 G4 alone, which was annealed in 1 × BPES buffer at pH 7.4. (B) ESI-MS experiment for above oligomer BCL-2 G4 with addition of B14 in 1 × BPES buffer at pH 7.4. (C-D) TO displacement with increasing amount of oligomer BCL-2 i-motif annealed in 1 X BPES buffer at pH 5.5 in the presence of 20 equivalents of B14 or A22. (E) EMSA experiment was performed for the effect of B14 on inducing BCL-2 i-motif formation. The lanes from left to right were as follow: BCL-2 i-motif alone at pH 5.5; BCL-2 i-motif alone at pH 6.2; BCL-2 i-motif plus 1 eq B14 at pH 6.2; BCL-2 i-motif plus 5 eq B14 at pH 6.2; BCL-2 i-motif plus 10 eq B14 at pH 6.2. (F) CD experiment was performed to study the interaction of B14 or A22 with BCL-2 promoter i-motif.
The DNA oligonucleotides were diluted to 5 μM with 1 × BPES buffer at pH 5.5 or pH 6.2, and different equivalents of compound were added. The mixtures were annealed at 95 °C for 10 min, gradually cooled to room temperature, and incubated at 4 °C overnight. Electrophoresis was carried out using 20% acrylamide Native PAGE (pH 6.4) with 1 × Tris-borate-EDTA (TBE) as running buffer (pH 6.4) at 80 V for 7 h at 4 °C. The gels were then silver-stained and photographed.
In general terms: Mobility shift assays separate free from complexed probe on a gel.

Test [3] has as its system BCL-2, C-MYC and VEGF protein expressions in SH-SY5Y cells. As to the kind of experiment: Western blot in SH-SY5Y cells. The conditions noted are these: increasing concentration of B14, 24 h. The class given is cell-based. As to the method: Protein samples (25–40 μg) were separated using 10 % SDS-PAGE and subsequently transferred onto PVDF membranes (0.22 μm, Servicebio, Guangzhou, China) via electro transfer. Following blocking with TBST solution (Servicebio, Guangzhou, China) containing 5 % BSA (Solarbio, Beijing, China) for approximately 60 min at room temperature, the membrane was exposed to various primary antibodies overnight at 4 °C on a rotating shaker. Then, the membranes were incubated with HRP-conjugated secondary antibody (Affinity, Changzhou, China) for 2 h. Protein bands were then detected using an ECL kit. The signal intensity of each target protein was quantified using Image J 1.8.0 software (Bio-Rad Laboratories, California, USA).
Primary antibodies for Western blot analysis include BCL-2 (affinity biosciences OH, Cat# AF6139, USA), BAX (affinity biosciences OH, Cat# AF0120, USA), VEGF (affinity biosciences OH, Cat# AF5131, USA), C-MYC (affinity biosciences OH, Cat# AF0358, USA), Caspase9 (affinity biosciences OH, Cat# AF6348, USA), cleaved-Caspase9 (affinity biosciences OH, Cat# AF5240, USA), Caspase3 (affinity biosciences OH, Cat# AF6311, USA), cleaved-Caspase3 (affinity biosciences OH, Cat# AF7022, USA), and Cyto-C (affinity biosciences OH, Cat# AF6139, USA).
For orientation: Immunoblotting shows a protein as a band on a membrane.

The test system of the next test is APP/PS1 transgenic mice. As to the kind of experiment: TEM of hippocampus microstructure. The note with it: vs model group. The class given is in vivo. From the text:
Five months old male APP/PS1 mice, weighing 25–33 g, were purchased from Guangdong Medical Laboratory Animal Center and housed in the Laboratory Animal Center of Sun Yat-sen University (Guangzhou, China) for experimentation. All procedures were approved by the Animal Care and Use Committee of Sun Yat-sen University and complied with legal requirements and national guidelines for the care and maintenance of laboratory animals (Approval No. SYSU-IACUC-2024-002032). The mice were housed in a specific pathogen-free environment with a controlled temperature of 22 ± 1 °C and a 12-h dark/light cycle. The mice were fed with a standard diet, and 30 mice were randomly divided into 6 groups (N = 5). Compound B14 was dissolved in saline and administered at doses of 10, 20, or 40 mg/kg. APP/PS1 male mice were grown until 6 months of age, and then injected intraperitoneally with compound B14 every other day for 60 days. Behavioral experiments were then conducted, and tissue specimens were collected for biochemical analysis.
After the behavioral tests, the mice were anesthetized and perfused with 0.1 M pre-cooled phosphate-buffered saline for 5 min, followed by 4 % pre-cooled paraformaldehyde until the mice were stiff. The hippocampi were then extracted and fixed in 3 % pre-cooled glutaraldehyde solution for 6 h, cut into 0.5–1 mm^3 blocks, and post-fixed in 1 % osmium tetroxide for 60 min. […]

T1 sequence (P05067 672-713 limits assumed): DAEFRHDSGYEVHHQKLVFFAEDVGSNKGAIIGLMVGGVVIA

`O=C(CCN1CCOCC1)Nc1ccc2c(c1)c(=O)c1cc(NC(=O)CCN3CCOCC3)ccc1n2-c1ccc2occc2c1` [Compound B14]: the KD in test [1] is above 50 µM. On Aβ1-42, the “absorbance of Congo red in the Aβ1-42 sample” value is reported as “significantly reduced”. Moreover, the “i-motif migration band (EMSA)” value in test [2] was “could induce BCL-2 i-motif formation in a dose-dependent manner”. Further, in test [3], the “BCL-2 translation (Western blot)” value is listed as “up-regulate BCL-2 translation in SH-SY5Y cells in a dose-dependent manner”; the “C-MYC and VEGF expression (Western blot)” value was “without significant effect on C-MYC and VEGF expression”. Moreover, the “hippocampal ultrastructure (myelin, synapses, mitochondria; TEM)” value with APP/PS1 transgenic mice is “the degree of mitochondrial damage was much reduced”.

By KD is commonly meant the equilibrium constant for the complex coming apart. Low readings indicate tighter binding, high ones weaker binding.

The record behind these values is article PMC11982498 (Redox Biology, 2025).
